In patent publication US20230399325A1, “SUCCINATE AND CRYSTAL FORM THEREOF AS THERAPEUTICS” (AUCENTRA THERAPEUTICS PTY LTD, priority 2020, published 2023):
Like-named read-outs stand apart in the source and are kept apart here.

What was measured:
U-87MG = experiment: Thymidine incorporation (3H-TdR) anti-proliferative assay, U-87MG; type: cell-based; details: Homo sapiens, Brain tumor
Experimental: (§1) The thymidine incorporation (3H-TdR) assay was used to assess the anti-proliferative effect of the Compound A succinate on tumor cell lines. The cells were treated with a series of concentrations of Compound A succinate for 24 hours; 3H-TdR was added, and the cells were continued in the incubator for further 48 hours. Scintillation fluid was added, read on a liquid scintillation counter, and the inhibiting cell growth by 50% (IC50) was calculated as shown in Table 5.

PC-3 = experiment: Thymidine incorporation (3H-TdR) anti-proliferative assay, PC-3; type: cell-based; details: Homo sapiens; PC-3, Prostate cancer
Experimental: as §1

SK-OV-3 = experiment: Thymidine incorporation (3H-TdR) anti-proliferative assay, SK-OV-3; type: cell-based; details: Homo sapiens; SK-OV-3, Ovarian cancer
Experimental: as §1

[1] = Hygroscopicity by dynamic moisture adsorption (DVS); type: physicochemical; details: for Hygroscopicity: 25° C./80% RH, succinate
Experimental: Dynamic moisture adsorption (DVS) was used to evaluate the hygroscopicity of compound A and salt forms under the condition of 25° C. and 80% RH.

MV-4-11 = experiment: Thymidine incorporation (3H-TdR) anti-proliferative assay, MV-4-11; type: cell-based; details: Homo sapiens, MV4-11; MV-4-11, Leukemia
Experimental: as §1

COLO-205 = experiment: Thymidine incorporation (3H-TdR) anti-proliferative assay, COLO-205; type: cell-based; details: Homo sapiens; COLO-205, Colon cancer
Experimental: as §1

PANC-1 = experiment: Thymidine incorporation (3H-TdR) anti-proliferative assay, PANC-1; type: cell-based; details: Homo sapiens; PANC-1, Pancreatic cancer
Experimental: as §1

[2] = test system: COLO 205 colorectal tumor xenograft; experiment: COLO 205 colorectal tumor xenograft; type: in vivo, mice; details: for Tumor volume (±S): 21 days; for Inhibition of tumor growth (T/C): day 21, succinate
Experimental: A separate study of Compound A succinate was conducted in COLO 205 colorectal tumor xenograft. The tumor-bearing mice (n=8) were treated orally with vehicle (ultra-pure water), or Compound A succinate (50 or 100 mg/kg) once daily for 21 days. As a positive control chemotherapy 5-FU (15 mg/kg) was given intraperitoneally. […] 5-FU was also effective with a T/C=47.2% (Table 7).

Raji = experiment: Thymidine incorporation (3H-TdR) anti-proliferative assay, Raji; type: cell-based; details: Homo sapiens, Lymphoma
Experimental: as §1

ZR-75-1 = experiment: Thymidine incorporation (3H-TdR) anti-proliferative assay, ZR-75-1; type: cell-based; details: Homo sapiens; ZR-75-1, Breast cancer
Experimental: as §1

[3] = test system: A2780 ovarian cancer cells; experiment: Subcutaneous A2780 ovarian cancer xenograft; type: in vivo, female BALB/c nude mice; details: for Tumor volume (±S): 14 days; for Mean tumor growth inhibition (T/C): day 14
Experimental: Compound A succinate was also assessed for in vivo anti-tumor activity in subcutaneous xenografts. Briefly, female BALB/c nude mice were inoculated with A2780 ovarian cancer cells; when the mean tumour volume reached 150-200 mm^3, animals were randomized to groups. The animals (n=8 per group) were treated orally with vehicle (ultra-pure water), Compound A succinate (62.5, 125 or 250 mg/kg), or Palbociclib (75 mg/kg) once a day for 14 consecutive days. Mice were observed daily for signs of toxicity and weight loss, and tumour volume measured every other day. […] Palbociclib was efficacious at 75 mg/kg, resulting in T/C of 42.8% (Table 6).

MOLM-13 = experiment: Thymidine incorporation (3H-TdR) anti-proliferative assay, MOLM-13; type: cell-based; details: Homo sapiens; MOLM-13, Leukemia
Experimental: as §1

MDA-MB-435S = experiment: Thymidine incorporation (3H-TdR) anti-proliferative assay, MDA-MB-435S; type: cell-based; details: Homo sapiens, Breast cancer
Experimental: as §1

[4] = Pharmacokinetic study of Compound A succinate in cynomolgus monkeys; type: in vivo; details: for AUC(0-inf) / AUC(0-t) / Cmax / clearance / half-life / Vd: cynomolgus monkey, plasma; for Vd: read-out: Vz; for F: succinate
Experimental: In a separate study, four cynomolgus monkeys were divided into two groups (n=2 per group), and given Compound A succinate at 2 mg/kg by i.v. and 24 mg/kg by i.g., respectively. The plasma samples were collected, analyzed and PK parameters were calculated as above.

[5] = Solid-state stability, 14 days, HPLC; type: physicochemical
Experimental: Compound A salts and Compound A were tested for their solid-state stability under the conditions of 25° C./60% RH and 40° C./75% RH.

[6] = Dynamic solubility in water and FaSSIF at 37° C.; type: physicochemical; details: for solubility at 1 h / solubility at 2 h / solubility at 4 h / solubility at 24 h: thermodynamic from solid, read-out: S: Solubility
[7] = iv, i.v. 2 mg/kg, female cynomolgus monkeys
[8] = iv, i.v. 2 mg/kg, male cynomolgus monkeys
[9] = po, i.g. 24 mg/kg, female cynomolgus monkeys
[10] = po, i.g. 24 mg/kg, male cynomolgus monkeys

Structure (SMILES): CCN1CCN(Cc2ccc(Nc3ncc(F)c(-c4sc(NC5CCCC5)nc4C)n3)nc2)CC1.O=C(O)CCC(=O)O [Compound A succinate, N-Cyclopentyl-5-(2-((5-((4-ethylpiperazin-1-yl)methyl)pyridin-2-yl)amino)-5-fluoropyrimidin-4-yl)-4-methylthiazol-2-amine succinate]
- IC50 (U-87MG): 42.6 nM
- IC50 (PC-3): 168 nM
- IC50 (SK-OV-3): 812 nM
- Moisture absorbed at 25° C./80% RH [1]: 1.1%
- Hygroscopicity ([1]; listed as Succinate): Slightly hygroscopic
- Hygroscopicity [1]: minimal hygroscopicity
- IC50 (MV-4-11): 88.8 nM
- IC50 (COLO-205): 839 nM
- IC50 (PANC-1): 812 nM
- Tumor volume (±S) ([2]; 50 mg/kg orally once daily): 941.10 ± 80.90 mm^3
- Inhibition of tumor growth (T/C) ([2]; 50 mg/kg orally once daily, listed as compound A Succinate): 36.26%
- Inhibition of tumor growth (T/C) ([2]; 50 mg/kg orally once daily): 36.3%
- Tumor volume (±S) ([2]; 100 mg/kg orally once daily): 443.72 ± 40.49 mm^3
- Inhibition of tumor growth (T/C) ([2]; 100 mg/kg orally once daily, listed as compound A Succinate): 74.69%
- Inhibition of tumor growth (T/C) ([2]; 100 mg/kg orally once daily): 74.7%
- IC50 (Raji): 608 nM
- IC50 (ZR-75-1): 35.7 nM
- Tumor volume (±S) ([3]; 62.5 mg/kg orally once a day): 1789.5 ± 131.5 mm^3
- Mean tumor growth inhibition (T/C) ([3]; 62.5 mg/kg orally once a day): 44.8%
- Tumor volume (±S) ([3]; 125 mg/kg orally once a day): 1009.6 ± 87.0 mm^3
- Mean tumor growth inhibition (T/C) ([3]; 125 mg/kg orally once a day): 70.8%
- Tumor volume (±S) ([3]; 250 mg/kg orally once a day): 546.4 ± 71.1 mm^3
- Mean tumor growth inhibition (T/C) ([3]; 250 mg/kg orally once a day): 86.2%
- IC50 (MOLM-13): 260 nM
- IC50 (MDA-MB-435S): 37.3 nM
- AUC(0-inf) [4, 7]: 1190 ng·h/mL
- AUC(0-t) [4, 7]: 1170 ng·h/mL
- Cmax [4, 7]: 371 ng/mL
- clearance [4, 7]: 31 mL/min/kg
- half-life [4, 7]: 4.7 h
- Vd [4, 7]: 13.2 L/kg
- AUC(0-inf) [4, 8]: 872 ng·h/mL
- AUC(0-t) [4, 8]: 843 ng·h/mL
- Cmax [4, 8]: 240 ng/mL
- clearance [4, 8]: 39.1 mL/min/kg
- half-life [4, 8]: 5.3 h
- Vd [4, 8]: 17.7 L/kg
- AUC(0-inf) [4, 9]: 7740 ng·h/mL
- AUC(0-t) [4, 9]: 7700 ng·h/mL
- Cmax [4, 9]: 532 ng/mL
- half-life [4, 9]: 6 h
- AUC(0-inf) [4, 10]: 7420 ng·h/mL
- AUC(0-t) [4, 10]: 7370 ng·h/mL
- Cmax [4, 10]: 593 ng/mL
- half-life [4, 10]: 6 h
- F ([4]; i.g. 24 mg/kg, female cynomolgus monkeys): 54.9%
- F ([4]; i.g. 24 mg/kg, male cynomolgus monkeys): 72.8%
- Purity ([5]; 25° C./60% RH): 97.9 area %
- Relative purity ([5]; 25° C./60% RH): 100.0 % of initial
- Purity ([5]; 40° C./75% RH): 97.9 area %
- Relative purity ([5]; 40° C./75% RH): 100.0 % of initial
- solubility compared to Compound A free base ([6]; both FaSSIF and water): significantly increased
- solubility at 1 h ([6]; FaSSIF): 8200 µg/mL
- solubility at 2 h ([6]; FaSSIF): 8100 µg/mL
- solubility at 4 h ([6]; FaSSIF): 8100 µg/mL
- solubility at 24 h ([6]; FaSSIF): 1100 µg/mL
- solubility at 1 h ([6]; water, H2O): 2000 µg/mL
- solubility at 2 h ([6]; water, H2O): 2000 µg/mL
- solubility at 4 h ([6]; water, H2O): 2100 µg/mL
- solubility at 24 h ([6]; water, H2O): 2300 µg/mL
